pIC50: −log10 of the molar value. Structures can show the parent of a compound that is named as a salt.
biological target: hNav1.7 (Homo sapiens (Human), UniProt Q15858); assay: Tritiated sulfonamide competitive binding to membranes from cells expressing hNav1.7 and the β1 subunit; details: read-out: Ligand Binding Assay; 100 pM [3H]compound, membranes with hNav1.7 and β1 subunit, 18 h, room temperature;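 note: Filter-bound radioactivity counted by liquid scintillation, nonspecific binding defined with excess unlabelled ligand, IC50 fitted to percent inhibition of specific binding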
Sequence (Q15858 other isoform, or with tags, fused parts or gaps): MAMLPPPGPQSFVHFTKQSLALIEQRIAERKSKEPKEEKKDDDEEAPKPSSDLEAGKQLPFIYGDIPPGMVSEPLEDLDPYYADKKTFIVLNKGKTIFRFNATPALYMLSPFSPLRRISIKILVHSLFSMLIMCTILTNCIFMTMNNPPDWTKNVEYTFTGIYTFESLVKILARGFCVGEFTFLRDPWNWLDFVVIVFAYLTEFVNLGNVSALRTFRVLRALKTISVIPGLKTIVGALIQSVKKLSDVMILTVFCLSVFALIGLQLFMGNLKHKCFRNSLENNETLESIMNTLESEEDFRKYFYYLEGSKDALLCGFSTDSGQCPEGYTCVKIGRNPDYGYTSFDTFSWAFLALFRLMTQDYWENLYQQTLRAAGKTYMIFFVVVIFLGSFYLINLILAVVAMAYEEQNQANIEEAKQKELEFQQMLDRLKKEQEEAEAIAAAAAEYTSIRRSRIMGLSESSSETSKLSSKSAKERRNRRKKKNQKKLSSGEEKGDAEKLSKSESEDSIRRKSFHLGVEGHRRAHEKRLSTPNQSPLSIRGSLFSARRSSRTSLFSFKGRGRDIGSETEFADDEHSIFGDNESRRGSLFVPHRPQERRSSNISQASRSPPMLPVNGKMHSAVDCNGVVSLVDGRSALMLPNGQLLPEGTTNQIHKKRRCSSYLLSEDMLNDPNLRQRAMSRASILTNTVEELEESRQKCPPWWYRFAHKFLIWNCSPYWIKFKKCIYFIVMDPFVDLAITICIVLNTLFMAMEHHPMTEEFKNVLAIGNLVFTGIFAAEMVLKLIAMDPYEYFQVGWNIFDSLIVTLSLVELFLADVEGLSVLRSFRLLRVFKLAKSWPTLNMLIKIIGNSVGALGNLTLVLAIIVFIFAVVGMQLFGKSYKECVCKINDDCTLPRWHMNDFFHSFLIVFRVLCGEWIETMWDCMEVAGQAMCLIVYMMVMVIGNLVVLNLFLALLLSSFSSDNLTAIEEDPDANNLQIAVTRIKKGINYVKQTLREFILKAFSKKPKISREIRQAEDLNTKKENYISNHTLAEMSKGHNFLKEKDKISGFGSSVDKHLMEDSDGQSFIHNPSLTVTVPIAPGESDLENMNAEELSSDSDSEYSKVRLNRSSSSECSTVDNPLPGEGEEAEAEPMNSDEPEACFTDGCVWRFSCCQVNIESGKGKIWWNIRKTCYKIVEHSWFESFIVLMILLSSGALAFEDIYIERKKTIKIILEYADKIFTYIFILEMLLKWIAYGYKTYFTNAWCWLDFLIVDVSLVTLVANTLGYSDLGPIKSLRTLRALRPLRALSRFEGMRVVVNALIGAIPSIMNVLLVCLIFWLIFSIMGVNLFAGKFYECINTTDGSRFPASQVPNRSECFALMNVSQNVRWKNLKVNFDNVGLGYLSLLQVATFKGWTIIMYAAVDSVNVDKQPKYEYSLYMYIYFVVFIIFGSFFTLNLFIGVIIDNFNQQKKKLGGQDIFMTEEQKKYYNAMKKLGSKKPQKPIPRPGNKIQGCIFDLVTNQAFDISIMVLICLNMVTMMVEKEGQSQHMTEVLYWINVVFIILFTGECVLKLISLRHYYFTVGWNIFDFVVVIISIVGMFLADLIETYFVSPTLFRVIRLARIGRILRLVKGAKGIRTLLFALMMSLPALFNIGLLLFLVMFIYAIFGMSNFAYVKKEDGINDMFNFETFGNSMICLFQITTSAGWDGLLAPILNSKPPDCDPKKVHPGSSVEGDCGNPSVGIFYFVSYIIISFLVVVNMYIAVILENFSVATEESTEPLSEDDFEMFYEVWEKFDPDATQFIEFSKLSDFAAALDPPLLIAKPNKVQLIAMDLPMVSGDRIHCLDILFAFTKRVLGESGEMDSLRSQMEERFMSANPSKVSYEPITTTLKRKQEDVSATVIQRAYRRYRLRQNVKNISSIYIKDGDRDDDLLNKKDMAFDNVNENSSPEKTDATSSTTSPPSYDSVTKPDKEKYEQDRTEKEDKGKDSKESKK
Sequence (Q07699 19-218 partner): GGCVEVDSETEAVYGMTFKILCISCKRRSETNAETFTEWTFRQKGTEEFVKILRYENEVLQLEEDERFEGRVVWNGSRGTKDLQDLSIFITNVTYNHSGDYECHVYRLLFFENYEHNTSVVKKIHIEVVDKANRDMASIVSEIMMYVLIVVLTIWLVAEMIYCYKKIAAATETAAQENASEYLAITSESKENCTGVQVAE

| pIC50 | SMILES |
| --- | --- |
| 7.83 | O=C(NS(=O)(=O)C1CC1)c1cc(C2CC2)c(OCC2CCN(S(=O)(=O)c3cc(F)c(F)c(F)c3)CC2)cc1F [Example 381, 5-cyclopropyl-N-(cyclopropylsulfonyl)-2-fluoro-4-((1-((3,4,5-trifluorophenyl)sulfonyl)piperidin-4-yl)methoxy)benzamide] |
| 7.39 | CS(=O)(=O)NC(=O)c1cc(C2CC2)c(OCC2CCN(S(=O)(=O)c3ccc(F)c(Cl)c3)CC2)cc1F [Example 382, 4-((1-((3-chloro-4-fluorophenyl)sulfonyl)piperidin-4-yl)methoxy)-5-cyclopropyl-2-fluoro-N-(methylsulfonyl)benzamide] |
| 7.83 | O=C(NS(=O)(=O)C1CC1)c1cc(C2CC2)c(OCC2CCN(S(=O)(=O)c3ccc(F)c(Cl)c3)CC2)cc1F [Example 383, 4-((1-((3-chloro-4-fluorophenyl)sulfonyl)piperidin-4-yl)methoxy)-5-cyclopropyl-N-(cyclopropylsulfonyl)-2-fluorobenzamide] |
| 7.79 | CS(=O)(=O)NC(=O)c1cc(C2CC2)c(OCC2CCN(S(=O)(=O)c3ccc(C(F)(F)F)cc3Cl)CC2)cc1F [Example 384, 4-((1-((2-chloro-4-(trifluoromethyl)phenyl)sulfonyl)piperidin-4-yl)methoxy)-5-cyclopropyl-2-fluoro-N-(methylsulfonyl)benzamide] |
| 8.00 | O=C(NS(=O)(=O)C1CC1)c1cc(C2CC2)c(OCC2CCN(S(=O)(=O)c3ccc(C(F)(F)F)cc3Cl)CC2)cc1F [Example 385, 4-((1-((2-chloro-4-(trifluoromethyl)phenyl)sulfonyl)piperidin-4-yl)methoxy)-5-cyclopropyl-N-(cyclopropylsulfonyl)-2-fluorobenzamide] |
| 7.28 | Cc1cc(F)ccc1S(=O)(=O)N1CCC(COc2cc(F)c(C(=O)NS(C)(=O)=O)cc2C2CC2)CC1 [Example 386, 5-cyclopropyl-2-fluoro-4-((1-((4-fluoro-2-methylphenyl)sulfonyl)piperidin-4-yl)methoxy)-N-(methylsulfonyl)benzamide] |
| 7.88 | Cc1cc(F)ccc1S(=O)(=O)N1CCC(COc2cc(F)c(C(=O)NS(=O)(=O)C3CC3)cc2C2CC2)CC1 [Example 387, 5-cyclopropyl-N-(cyclopropylsulfonyl)-2-fluoro-4-((1-((4-fluoro-2-methylphenyl)sulfonyl)piperidin-4-yl)methoxy)benzamide] |
| 7.79 | CS(=O)(=O)NC(=O)c1cc(C2CC2)c(OCC2CCN(S(=O)(=O)c3ccc4ccccc4c3)CC2)cc1F [Example 388, 5-cyclopropyl-2-fluoro-N-(methylsulfonyl)-4-((1-(naphthalen-2-ylsulfonyl)piperidin-4-yl)methoxy)benzamide] |
| 7.73 | CS(=O)(=O)NC(=O)c1cc(C2CC2)c(OCC2CCN(S(=O)(=O)c3ccc(Br)c(Cl)c3)CC2)cc1F [Example 390, 4-((1-((4-bromo-3-chlorophenyl)sulfonyl)piperidin-4-yl)methoxy)-5-cyclopropyl-2-fluoro-N-(methylsulfonyl)benzamide] |
| 8.00 | O=C(NS(=O)(=O)C1CC1)c1cc(C2CC2)c(OCC2CCN(S(=O)(=O)c3ccc(Br)c(Cl)c3)CC2)cc1F [Example 391, 4-((1-((4-bromo-3-chlorophenyl)sulfonyl)piperidin-4-yl)methoxy)-5-cyclopropyl-N-(cyclopropylsulfonyl)-2-fluorobenzamide] |
| 5.86 | O=C(NS(=O)(=O)C1CC1)c1cc(C2CC2)c(OCC2CCN(S(=O)(=O)C3COC3)CC2)cc1F [Example 393, 5-cyclopropyl-N-(cyclopropylsulfonyl)-2-fluoro-4-((1-(oxetan-3-ylsulfonyl)piperidin-4-yl)methoxy)benzamide] |
| 5.22 | CS(=O)(=O)N1CCC(COc2cc(F)c(C(=O)NS(=O)(=O)C3CC3)cc2C2CC2)CC1 [Example 394, 5-cyclopropyl-N-(cyclopropylsulfonyl)-2-fluoro-4-((1-(methylsulfonyl)piperidin-4-yl)methoxy)benzamide] |
| < 5.00 | CS(=O)(=O)NC(=O)c1cc(C2CC2)c(OCC2CCN(S(C)(=O)=O)CC2)cc1F [Example 395, 5-cyclopropyl-2-fluoro-N-(methylsulfonyl)-4-((1-(methylsulfonyl)piperidin-4-yl)methoxy)benzamide] |
| 8.68 | O=C(NS(=O)(=O)C1CC1)c1cc(C2CC2)c(OCC2CCN(C(c3ccc(Cl)cc3)c3ccc(Cl)cc3)CC2)cc1F [Example 400, 4-((1-(bis(4-chlorophenyl)methyl)piperidin-4-yl)methoxy)-5-cyclopropyl-N-(cyclopropylsulfonyl)-2-fluorobenzamide, trifluoroacetic acid salt] |
| 8.51 | O=C(NS(=O)(=O)C1CC1)c1cc(C2CC2)c(OCC2CCN(C(c3cccc(Cl)c3)c3cccc(Cl)c3)CC2)cc1F [Example 401, 4-((1-(bis(3-chlorophenyl)methyl)piperidin-4-yl)methoxy)-5-cyclopropyl-N-(cyclopropylsulfonyl)-2-fluorobenzamide, trifluoroacetic acid salt] |
| 7.65 | C[C@@H](c1cc(Cl)cc(Cl)c1)N1CCC(COc2cc(F)c(C(=O)NS(C)(=O)=O)cc2Cl)CC1 [Example 402, (S)-5-chloro-4-((1-(1-(3,5-dichlorophenyl)ethyl)piperidin-4-yl)methoxy)-2-fluoro-N-(methylsulfonyl)benzamide, trifluoroacetic acid salt] |
| 7.77 | C[C@@H](c1cc(Cl)cc(Cl)c1)N1CCC(COc2cc(F)c(C(=O)NS(=O)(=O)C3CC3)cc2Cl)CC1 [Example 403, (S)-5-chloro-N-(cyclopropylsulfonyl)-4-((1-(1-(3,5-dichlorophenyl)ethyl)piperidin-4-yl)methoxy)-2-fluorobenzamide, trifluoroacetic acid salt] |
| 7.70 | C[C@H](c1cc(Cl)cc(Cl)c1)N1CCC(COc2cc(F)c(C(=O)NS(C)(=O)=O)cc2Cl)CC1 [Example 404, (R)-5-chloro-4-((1-(1-(3,5-dichlorophenyl)ethyl)piperidin-4-yl)methoxy)-2-fluoro-N-(methylsulfonyl)benzamide, trifluoroacetic acid] |
| 7.82 | C[C@H](c1cc(Cl)cc(Cl)c1)N1CCC(COc2cc(F)c(C(=O)NS(=O)(=O)C3CC3)cc2Cl)CC1 [Example 405, (R)-5-chloro-N-(cyclopropylsulfonyl)-4-((1-(1-(3,5-dichlorophenyl)ethyl)piperidin-4-yl)methoxy)-2-fluorobenzamide, trifluoroacetic acid salt] |
| 7.75 | CS(=O)(=O)NC(=O)c1cc(Cl)c(OCC2CCN(Cc3cc(Cl)cc(OC(F)(F)F)c3)CC2)cc1F [Example 406, 5-chloro-4-((1-(3-chloro-5-(trifluoromethoxy)benzyl)piperidin-4-yl)methoxy)-2-fluoro-N-(methylsulfonyl)benzamide, trifluoroacetic acid salt] |
| 8.17 | O=C(NS(=O)(=O)C1CC1)c1cc(Cl)c(OCC2CCN(Cc3cc(Cl)cc(OC(F)(F)F)c3)CC2)cc1F [Example 407, 5-chloro-4-((1-(3-chloro-5-(trifluoromethoxy)benzyl)piperidin-4-yl)methoxy)-N-(cyclopropylsulfonyl)-2-fluorobenzamide, trifluoroacetic acid salt] |
| 7.64 | O=C(NS(=O)(=O)N1CCC1)c1cc(Cl)c(OCC2CCN(Cc3cc(Cl)cc(OC(F)(F)F)c3)CC2)cc1F [Example 408, N-(azetidin-1-ylfulfonyl)-5-chloro-4-((1-(3-chloro-5-(trifluoromethoxy)benzyl)piperidin-4-yl)methoxy)-2-fluorobenzamide, trifluoroacetic acid suit] |
| 7.27 | N#Cc1cc(C(=O)NS(=O)(=O)C2CC2)c(F)cc1OCC1CCN(Cc2cc(Cl)cc(OC(F)(F)F)c2)CC1 [Example 409, 4-((1-(3-chloro-5-(trifluoromethoxy)benzyl)piperidin-4-yl)methoxy)-5-cyano-N-(cyclopropylsulfonyl)-2-fluorobenzamide, trifluoroacetic acid salt] |
| 7.96 | CS(=O)(=O)NC(=O)c1cc(C2CC2)c(OCC2CCN(Cc3nc(-c4ccccc4Cl)no3)CC2)cc1F [Example 410, 4-((1-((3-(2-chlorophenyl)-1,2,4-oxadiazol-5-yl)methyl)piperidin-4-yl)methoxy)-5-cyclopropyl-2-fluoro-N-(methylsulfonyl)benzamide, trifluoroacetic acid salt] |

| SMILES | pIC50 |
| --- | --- |
| O=C(NS(=O)(=O)C1CC1)c1cc(C2CC2)c(OC[C@@H]2C[C@H]3CC[C@@H](C2)N3Cc2cc(C(F)(F)F)cc(Cl)c2F)cc1F [Example 396, 4-(((1R,3S,5S)-8-(3-chloro-2-fluoro-5-(trifluoromethyl)benzyl)-8-azabicyclo-[3.2.1]octan-3-yl)methoxy)-5-cyclopropyl-N-(cyclopropylsulfonyl)-2-fluorobenzamide, trifluoroacetic acid salt] | 7.83 |
| O=C(NS(=O)(=O)C1CC1)c1cc(C2CC2)c(OC[C@@H]2C[C@H]3CC[C@@H](C2)N3Cc2cc(C(F)(F)F)ccc2Cl)cc1F [Example 397, 4-(((1R,3S,5S)-8-(2-chloro-5-(trifluoromethyl)benzyl)-8-azabicyclo[3.2.1]octan-3-yl)methoxy)-5-cyclopropyl-N-(cyclopropylsulfonyl)-2-fluorobenzamide, trifluoroacetic acid salt] | 8.24 |
| CS(=O)(=O)NC(=O)c1cc(C2CC2)c(OC[C@@H]2C[C@H]3CC[C@@H](C2)N3Cc2cc(C(F)(F)F)cc(Cl)c2F)cc1F [Example 398, 4-(((1R,3S,5S)-8-(3-chloro-2-fluoro-5-(trifluoromethyl)benzyl)-8-azabicyclo[3.2.1]octan-3-yl)methoxy)-5-cyclopropyl-2-fluoro-N-(methylsulfonyl)benzamide, trifluoroacetic acid salt] | 8.29 |
| CS(=O)(=O)NC(=O)c1cc(C2CC2)c(OC[C@@H]2C[C@H]3CC[C@@H](C2)N3Cc2cc(C(F)(F)F)ccc2Cl)cc1F [Example 399, 4-(((1R,3S,5S)-8-(2-chloro-5-(trifluoromethyl)benzyl)-8-azabicyclo[3.2.1]octan-3-yl)methoxy)-5-cyclopropyl-2-fluoro-N-(methylsulfonyl)benzamide, trifluoroacetic acid salt] | 8.34 |

Source: patent US9546164B2 (GENENTECH, INC., priority 2013, dated 2017)
